Source: US20250326794A1, “ANTI-CANCER LEUCINE-RICH PEPTIDES AND USES THEREOF” (KING'S COLLEGE LONDON, priority 2019, published 2025)
Where two headings read alike, the source gives them in different places.

Tests used:
[1] = tested on: HEK293T (human embryonic kidney cell); test: cells
From the text: (§1) HMLER (human mammary endothelial cancer cells), HMLER-shEcad (human mammary endothelial cancer stem cells), and MCF-10A (healthy human mammary endothelial) cells were maintained in Mammary Epithelial Cell Growth Medium (MEGM) with supplements and growth factors: bovine pituitary extract (BPE), hydrocortisone, human epidermal growth factor (hEGF), insulin, and gentamicin/amphotericin-B. HEK293T (human embryonic kidney cell), and U2OS (Homo sapiens bone osteosarcoma) cells were maintained in Dulbecco's Modified Eagle's Medium (DMEM) with a final concentration of 10% fetal bovine serum. The cells were grown in T75 flask at 310 K in a humidified atmosphere containing 5% CO2.
(§2) The colourimetric MTT (3-(4,5-dimethylthiazol-2-yl)-2,5-diphenyltetrazolium bromide) assay was used to determine the toxicity of the anticancer peptides and conventional anticancer drugs. 5×10^3 cells were seeded in each well of a 96-well microplate. The cells were incubated overnight. Elevated concentrations of the compounds (0, 0.1, 0.2, 0.4, 0.8, 1.6, 3.1, 6.3, 12.5, 25, 50 and 100 μM) were added and incubated for 72 hr with a total volume 200 μL. The stock solutions of the compounds were prepared as 5 mM solutions in DMSO and diluted using media or in pure water. The final concentration of DMSO in each well was either 0.5% or 0% and this amount was present in the untreated control. After 72 hr, 20 μL of a 4 mg/mL solution of MTT in PBS was added to each well, and the plate was incubated for an additional 4 hr. The MEGM/MTT mixture was aspirated and 100 μL of DMSO was added to dissolve the resulting purple formazan crystals. The absorbance of the solutions in each well was read at 550 nm wavelength. Absorbance values were normalized to either DMSO-containing or non DMSO-containing control wells and plotted as concentration of test compound versus % cell viability. IC50 values were interpolated from the resulting dose dependent curves.
(§3) The peptides were screened against several different human cell lines and their cytotoxicity were determined. Cell lines utilised include MCF-10A (human breast epithelial cell), HMLER (human breast cancer bulk cell), HMLER-shEcad (human breast cancer stem cell), HEK293T (human embryonic kidney cell), and U2OS (human bone osteosarcoma).

[2] = tested on: HMLER (human breast cancer bulk cell); test: cells
From the text: as §1, §2, §3

[3] = tested on: HMLER-shEcad (human breast cancer stem cell); test: cells
From the text: as §1, §2, §3

[4] = tested on: U2OS (human bone osteosarcoma)
From the text: as §1, §2, §3

[5] = Tryptophan fluorescent binding assay, POPC vesicles; settings: 50 μM peptide, PBS pH 7.4, lipid per peptide
Description: (§4) In brief, 50 μM peptides were fixed and incubated with titrated POPC vesicles (black) or 3POPC/1POPG vesicles (grey) at concentrations of 0, 12.5, 25, 50, 100, 250, 500, 1000, 2500, and 5000 μM in phosphate buffered saline (1×, pH 7.4). The lipid concentration that causes 50% peptide binding was determined using a tryptophan fluorescent binding assay and the values are shown as lipid per peptide.
(§5) The lipids 1-palmitoyl-2-oleoyl-sn-glycero-3-phosphocholine (POPC), 1-palmitoyl-2-oleoyl-snglycero-3-phospho-(1′-rac-glycerol) (POPG) were purchased from Avanti Polar Lipids and dissolved in chloroform. Large unilamellar vesicles (LUVs) were produced by extrusion through 100 nm pore filter using an extruder and filters purchased from Avanti Polar Lipids.
(§6) Peptides (50 μM) and POPC/POPG LUVs (600 μM) were prepared in 10 mM phosphate buffer (pH 7.0). The solutions were incubated and measured after 60 minutes. Excitation was fixed at 280 nm (slit 9 nm) and emission was collected from 300 to 450 nm (slit 9 nm). The spectra were recorded using a Synergy H1 Hybrid Multi-Mode Reader (FIG. 3A) and Cytation™ 5 Cell Imaging Multi-Mode Reader (FIG. 2) from BioTek and were averaged over 3 scans.
(§7) Table 3 illustrates the lipid concentration-induced 50% peptide binding onto a liposome. 50 μM peptide was fixed and incubated with titrated lipid (POPC vesicles or 3POPC/1POPG vesicles) at concentrations of 0, 12.5, 25, 50, 100, 250, 500, 1000, 2500, and 5000 μM in phosphate buffered saline (1×, pH 7.4). The lipid concentration that causes 50% peptide binding was determined using tryptophan fluorescent binding assay and the values are shown as lipid per peptide. †N-terminus is free, C-terminus: —W—NH2.

[6] = Tryptophan fluorescent binding assay, 3POPC/1POPG vesicles; settings: 50 μM peptide, PBS pH 7.4, lipid per peptide
Description: as §4, §5, §6, §7

[7] = ANTS/DPX liposome leakage assay, POPC vesicles; type: biochemical; settings: 0.5 mM vesicles; for Peptide Concentration-induced 50% ANTS/DPX leakage at pH 4.8, POPC Vesicle: pH 4.8, lipid per peptide; for Peptide Concentration-induced 50% ANTS/DPX leakage at pH 7.4, POPC Vesicle: pH 7.4, lipid per peptide
Description: (§8) In brief, 0.5 mM POPC vesicles (grey) or POPC:POPG vesicles (ratio 3:1, black) were incubated with peptide concentrations of 0, 0.02, 0.04, 0.08, 0.16, 0.32, 0.64, 1.25, 2.5, 5, 10, and 20 μM in each A) hydrochloric acid-adjusted phosphate buffered saline (1×, pH 4.8) and B) phosphate buffered saline (1×, pH 7.4).
as §5
(§9) 5 mM ANTS (8-aminonaphthalene-1,3,6-trisulfonic acid, disodium salt) and 12.5 mM DPX (p-xylene-bis-pyridinium bromide) were entrapped in 0.1 μm diameter extruded vesicles with lipids. Gel filtration chromatography using a Sephadex G-100 (GE Healthcare Life Sciences Inc) was used to remove external free ANTS/DPX from LUVs with entrapped contents. LUVs were diluted to 0.5 mM and used to measure the leakage activity by addition of aliquots of peptides. Leakage was measured after 3 h incubation. 10% Triton was used as the positive control to measure the maximum leakage of the vesicle. Fluorescence emission spectra were recorded using excitation and emission wavelength of 350 nm and 510 nm for ANTS/DPX using a BioTek Synergy H1 Hybrid Multi-Mode Reader.
(§10) Table 4 illustrates peptide concentration-induced 50% ANTS/DPX liposome leakage. 0.5 mM POPC and 3POPC/1POPG vesicles were fixed and incubated with titrated peptide concentration ([…]) each in phosphate buffered saline (1×, pH 7.4) and hydrochloric acid-adjusted phosphate buffered saline (1×, pH 4.8). The values are shown as lipid per peptide. †N-terminus is free, C-terminus: —W—NH2.

[8] = ANTS/DPX liposome leakage assay, 3POPC/1POPG vesicles; type: biochemical; settings: 0.5 mM vesicles; for Peptide Concentration-induced 50% ANTS/DPX leakage at pH 4.8, 3POPC/1POPG Vesicle: pH 4.8, lipid per peptide; for Peptide Concentration-induced 50% ANTS/DPX leakage at pH 7.4, 3POPC/1POPG Vesicle: pH 7.4, lipid per peptide
Description: as §8, §5, §9, §10

| Compound | IC50 ([1]; 72 h) [µM] | IC50 ([2]; 72 h) [µM] | IC50 ([3]; 72 h) [µM] | IC50 ([4]; 72 h) [µM] | Lipid Concentration-induced 50% Peptide Binding, POPC Vesicle [5] [L/P] | Lipid Concentration-induced 50% Peptide Binding, 3POPC/1POPG Vesicle [6] [L/P] | Peptide Concentration-induced 50% ANTS/DPX leakage at pH 4.8, POPC Vesicle [7] [L/P] | Peptide Concentration-induced 50% ANTS/DPX leakage at pH 7.4, POPC Vesicle [7] [L/P] | Peptide Concentration-induced 50% ANTS/DPX leakage at pH 4.8, 3POPC/1POPG Vesicle [8] [L/P] | Peptide Concentration-induced 50% ANTS/DPX leakage at pH 7.4, 3POPC/1POPG Vesicle [8] [L/P] | IC50 ([1]; read-out: IC50 HEK293T, MTT, 72 hr) [µM] | IC50 ([2]; read-out: IC50 HMLER, MTT, 72 hr) [µM] | IC50 ([3]; read-out: IC50 HMLER-shEcad, MTT, 72 hr) [µM] | IC50 ([4]; read-out: IC50 U20S, MTT, 72 hr) [µM] |
| --- | --- | --- | --- | --- | --- | --- | --- | --- | --- | --- | --- | --- | --- | --- |
| CC(C)C[C@H](NC(=O)CN)C(=O)N[C@@H](CC(C)C)C(=O)N[C@@H](CC(=O)O)C(=O)N[C@@H](CC(C)C)C(=O)N[C@@H](CC(C)C)C(=O)N[C@@H](Cc1c[nH]cn1)C(=O)N[C@@H](CC(C)C)C(=O)N[C@@H](CC(C)C)C(=O)N[C@@H](CC(C)C)C(=O)N[C@@H](Cc1c[nH]cn1)C(=O)N[C@@H](C)C(=O)N[C@@H](C)C(=O)NCC(=O)N[C@@H](Cc1c[nH]c2ccccc12)C(N)=O [DHH] | 6.4 ± 0.42 | 21.4 ± 2.47 | 11.9 ± 0.14 | 55.9 ± 18.9 | 0.67 | 0.28 | 106 | 684 | 98 | 692 | – | – | – | – |
| CC(C)C[C@H](NC(=O)CN)C(=O)N[C@@H](CC(C)C)C(=O)N[C@@H](CC(=O)O)C(=O)N[C@@H](CC(C)C)C(=O)N[C@@H](CC(C)C)C(=O)N[C@@H](Cc1c[nH]cn1)C(=O)N[C@@H](CC(C)C)C(=O)N[C@@H](CC(C)C)C(=O)N[C@@H](CC(C)C)C(=O)N[C@@H](CCCCN)C(=O)N[C@@H](C)C(=O)N[C@@H](C)C(=O)NCC(=O)N[C@@H](Cc1c[nH]c2ccccc12)C(N)=O [DHK] | – | – | – | – | 0.20 | 0.38 | 47 | 747 | 183 | 469 | 7.3 ± 0.42 | 1.75 ± 0.49 | 1.02 ± 0.12 | 20.4 ± 2.05 |
| CC(C)C[C@H](NC(=O)CN)C(=O)N[C@@H](CC(C)C)C(=O)N[C@@H](CC(=O)O)C(=O)N[C@@H](CC(C)C)C(=O)N[C@@H](CC(C)C)C(=O)N[C@@H](CCCCN)C(=O)N[C@@H](CC(C)C)C(=O)N[C@@H](CC(C)C)C(=O)N[C@@H](CC(C)C)C(=O)N[C@@H](CCC(=O)O)C(=O)N[C@@H](C)C(=O)N[C@@H](C)C(=O)NCC(=O)N[C@@H](Cc1c[nH]c2ccccc12)C(N)=O [DKE] | 7.8 ± 1.41 | 2.1 | 1.57 ± 0.33 | 9.93 ± 0.25 | 0.56 | 0.46 | 21 | 747 | 469 | 411 | – | – | – | – |
| CC(C)C[C@H](NC(=O)CN)C(=O)N[C@@H](CC(C)C)C(=O)N[C@@H](CC(=O)O)C(=O)N[C@@H](CC(C)C)C(=O)N[C@@H](CC(C)C)C(=O)N[C@@H](CCCCN)C(=O)N[C@@H](CC(C)C)C(=O)N[C@@H](CC(C)C)C(=O)N[C@@H](CC(C)C)C(=O)N[C@@H](Cc1c[nH]cn1)C(=O)N[C@@H](C)C(=O)N[C@@H](C)C(=O)NCC(=O)N[C@@H](Cc1c[nH]c2ccccc12)C(N)=O [DKH] | 6.15 ± 1.34 | 3.45 ± 0.07 | 2.8 ± 0.28 | 21.1 ± 3.01 | 10.00 | 0.46 | 41 | 614 | 58 | 274 | – | – | – | – |
| CC(C)C[C@H](NC(=O)CN)C(=O)N[C@@H](CC(C)C)C(=O)N[C@@H](CC(=O)O)C(=O)N[C@@H](CC(C)C)C(=O)N[C@@H](CC(C)C)C(=O)N[C@@H](CCCCN)C(=O)N[C@@H](CC(C)C)C(=O)N[C@@H](CC(C)C)C(=O)N[C@@H](CC(C)C)C(=O)N[C@@H](CCCCN)C(=O)N[C@@H](C)C(=O)N[C@@H](C)C(=O)NCC(=O)N[C@@H](Cc1c[nH]c2ccccc12)C(N)=O [DKK] | 3.4 ± 0.28 | 1.95 ± 0.35 | 1.2 ± 0.14 | 10.4 ± 1.7 | 2.75 | 6.88 | 47 | 463 | 227 | 156 | – | – | – | – |
